Measurements reported in US20070212677A1, “Identifying off-target effects and hidden phenotypes of drugs in human cells” (Odyssey Thera, Inc., priority 2004, published 2007).
Entries after “also recorded” stand apart in the source; their conditions may differ. Non-standard residues stand in square brackets, D forms with d. Residues, ends and D or L forms follow the SMILES beside them. Nle = CCCC[C@H](N)C(=O)O

Assays:
Akt1:p27 = Akt1:p27 PCA; conditions: for Akt:p27 complexes: 90 and 480 minutes after treatment
Description: (§4) For example, we monitored drug activity on growth factor-mediated signal transduction pathways involving protein kinase B (Akt) by assessing the complex between Akt1 and phosphatidylinositol-3-dependent kinase (Pdk1). We also monitored complexes containing Akt1 and the cyclin-dependent kinase inhibitor, p27 (CDKN1B; kip1), which reports on cell cycle regulatory processes.
Akt1:Pdk1 = Akt1:Pdk1 PCA; conditions: for Akt:Pdk1 complexes: 90 and 480 minutes after treatment
Description: as §4
cyclinD1:Cdk4 = assay: CyclinD1:Cdk4 PCA; assay type: cell-based, human; conditions: eight hours of treatment
H-Ras:Raf-1 = H-Ras:Raf-1 PCA; assay type: cell-based, human; conditions: drug treatment, HEK293
beta-Arr2:beta2AR = beta-Arr2:beta2AR (Homo sapiens, UniProt P07550); assay: beta-Arr2:beta2AR PCA (with or without ISO); assay type: cell-based
Pin1:Jun = Pin1:Jun PCA; assay type: cell-based, human; conditions: for effect on Pin1:Jun assay: statins, FIG. 19B
phospho-ERK = phospho-ERK (T202/Y204) immunofluorescence, high-content imaging in HEK293 cells; assay type: cell-based, human; conditions: for EGF-stimulated ERK phosphorylation: drug 90 min, hEGF during last 5 min
Description: (§1) We assessed the effects of the above-mentioned compounds on the three pathways and used the results to construct pharmacological profiles for the agents. Human cells (HEK293) were treated with drugs and the phosphorylation status of the three downstream proteins was assessed in the absence or presence of epidermal growth factor (EGF). Cells were then fixed and probed with antisera generated against the phosphorylated forms of CREB (S133), ERK1/2 (phospho T*EY*), or phospho Hsp27 (S78/S82). The ERK1/2 antibodies specifically recognize the MAPK/ERK1 and MAPK/ERK2 protein kinases only when they are phosphorylated on Threonine 202 and Tyrosine 204 in the activation loop. […] Changes in the level and sub-cellular localization of a phosphorylated protein following treatment with a drug would indicate a functional connection between the drug and the pathway of interest.
(§2) Details of the methods used are as follows. HEK293T cells were seeded in black-walled, poly-lysine coated 96-well plates (Greiner) at a density of 30,000/well. After 24 hours, cells in duplicate wells were treated with combinations of different drugs and stimulus as follows: (a) 20 micromolar PD98059, micromolar SB203580, or vehicle alone for 90 minutes; and (b) as for (a), but with 100 ng/ml hEGF added to the cells during the last 5 min of drug treatment. The drugs were purchased from Calbiochem and hEGF was from Roche. Four sets of cells treated as described were prepared. The cells were rinsed once with PBS and fixed with 4% formaldehyde for 10 min. The cells were subsequently permeabilized with 0.25% Triton X-100 in PBS and incubated with 3% BSA for 30 min to block non-specific antibody binding. […]
(§3) Images were acquired using a Discovery-1 High Content Imaging System (Molecular Devices). Background fluorescence due to nonspecific binding by the secondary antibody was established with the use of cells that were incubated with BSA/PBS and without primary antibodies. […]

PPAR-gamma:SRC-1 = biological target: T1, PPAR-gamma:SRC-1 (Homo sapiens, UniProt P37231); assay: PPAR-gamma:SRC-1 PCA; assay type: cell-based; conditions: serum-starved HEK293; for effect on PPAR-gamma:SRC-1 PCA: drug 6.5 hours prior to rosiglitazone 1.5 hours, FIG. 24B, C
T1 sequence (P37231 1-477 isoform P37231-2): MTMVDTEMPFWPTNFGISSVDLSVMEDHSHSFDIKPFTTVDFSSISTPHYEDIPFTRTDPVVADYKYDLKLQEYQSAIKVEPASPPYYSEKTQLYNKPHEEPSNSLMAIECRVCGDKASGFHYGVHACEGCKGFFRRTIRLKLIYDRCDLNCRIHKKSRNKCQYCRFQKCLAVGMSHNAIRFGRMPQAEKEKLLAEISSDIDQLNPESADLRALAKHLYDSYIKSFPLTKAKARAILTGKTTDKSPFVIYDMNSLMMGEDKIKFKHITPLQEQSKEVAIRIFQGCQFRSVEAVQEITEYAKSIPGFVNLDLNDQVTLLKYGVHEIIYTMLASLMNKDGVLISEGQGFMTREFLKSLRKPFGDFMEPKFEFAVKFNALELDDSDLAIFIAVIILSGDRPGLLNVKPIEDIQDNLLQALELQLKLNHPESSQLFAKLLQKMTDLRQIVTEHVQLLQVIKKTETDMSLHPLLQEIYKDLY

phospho-Hsp27 = phospho-Hsp27 immunofluorescence, high-content imaging in HEK293 cells; assay type: cell-based, human; conditions: for EGF-induced Hsp27 phosphorylation: drug 90 min, hEGF during last 5 min
Description: as §1, §2, §3

phospho-CREB = phospho-CREB (Ser133) immunofluorescence, high-content imaging in HEK293 cells; assay type: cell-based, human
Description: as §1
Details of the methods used are as follows. HEK293T cells were seeded in black-walled, poly-lysine coated 96-well plates (Greiner) at a density of 30,000/well. […]
as §3

CDKN1A(p21):Cdc2 = assay: Cdc2:p21 PCA; conditions: statins
ELK: MAPK1 = assay: Elk1:Mapk1 PCA; conditions: 480 minutes; FIG. 17 bar 20
MAPK1:MKNK1 = assay: Mknk1:Mapk1 PCA; conditions: 480 minutes; bar 27
Cofilin:Limk2 = Cofilin:Limk2 PCA; conditions: drug treatment, HEK293

## C=CCNC1=C2C[C@@H](C)C[C@H](OC)[C@H](O)[C@@H](C)/C=C(\C)[C@H](OC(N)=O)[C@@H](OC)/C=C\C=C(/C)C(=O)NC(=CC1=O)C2=O [17-AAG, 17-(allylamino)-17-demethoxygeldanamycin]
Akt1:p27
  Akt:p27 complexes: negatively regulated
Akt1:Pdk1
  Akt:Pdk1 complexes: negatively regulated

## CCCC[C@@H](C=O)NC(=O)[C@H](CC(C)C)NC(=O)[C@H](CC(C)C)NC(C)=O [ALLN] (Ac-Leu-Leu-[Nle]-aldehyde)
cyclinD1:Cdk4
  cyclinD1:Cdk4 complexes: accumulation of this complex in the nucleus

## Cc1ccc(S(=O)(=O)/C=C/C#N)cc1 [BAY 11-7082]
H-Ras:Raf-1
  HRas:Raf1 complex: inhibited
Akt1:p27; HEK293
  nuclear Akt:p27 complexes: strongly inhibited
Akt1:Pdk1; HEK293
  total Akt:Pdk1 complexes: not

## CC(C)C[C@H](NC(=O)c1ccc(NCc2cnc[nH]2)cc1-c1cccc2ccccc12)C(=O)O [GGTI-2133]
beta-Arr2:beta2AR; FIG. 19A, 2 μM ISO 30 min
  effect on βArr2:β2AR assay following isoproterenol stimulation: no effect

## CN(CCOc1ccc(C[C@H](Nc2ccccc2C(=O)c2ccccc2)C(=O)O)cc1)c1ccccn1 [GW1929]
Pin1:Jun; PPARγ ligands, 480 minutes, FIG. 18
  effect on Pin1/Jun PCA: strong stimulation; also recorded: had an effect

## COc1cccc(-c2cc(=O)c3ccccc3o2)c1N [PD98059]
phospho-ERK
  EGF-stimulated ERK phosphorylation: significantly blocked
PPAR-gamma:SRC-1
  effect on PPAR-gamma:SRC-1 PCA: no appreciable effects
phospho-Hsp27
  EGF-induced Hsp27 phosphorylation: no effect
phospho-CREB; 20 micromolar PD98059 90 min, hEGF during last 5 min
  effect of EGF on phospho-CREB in presence of drug: reduced

## COc1cc2ncnc(Nc3cccc(Br)c3)c2cc1OC [PD 153035]
PPAR-gamma:SRC-1
  effect on PPAR-gamma:SRC-1 PCA: no appreciable effects

## CC(C)(C)n1nc(-c2ccc(Cl)cc2)c2c(N)ncnc21 [PP2]
PPAR-gamma:SRC-1; drug 10 micromolar 6.5 hours prior to rosiglitazone 1.5 hours, p<0.0001 vs DMSO
  increase of PPAR-gamma:SRC-1 complex: 5 fold
PPAR-gamma:SRC-1
  effect on PPAR-gamma:SRC-1 PCA: comparable to c-src siRNA

## Nc1ncnc2c1cnn2-c1ccccc1 [PP3]
PPAR-gamma:SRC-1
  effect on PPAR-gamma:SRC-1 PCA: did not mimic

## C[S+]([O-])c1ccc(-c2nc(-c3ccc(F)cc3)c(-c3ccncc3)[nH]2)cc1 (stereo not drawn) [SB203580, 4-(4-fluorophenyl)-2-(4-methylsulfinylphenyl)-5-(4-pyridyl)1H-imidazole]
phospho-ERK
  EGF-stimulated ERK phosphorylation: no effect
phospho-Hsp27
  EGF-induced Hsp27 phosphorylation: blocked

## CC(C)n1c(/C=C/C(O)CC(O)CC(=O)O)c(-c2ccc(F)cc2)c2ccccc21 (stereo not drawn) [fluvastatin]
Pin1:Jun
  effect on Pin1:Jun assay: pronounced inhibitory activity; also recorded: inhibited

## CC(C)c1nc(N(C)S(C)(=O)=O)nc(-c2ccc(F)cc2)c1/C=C/[C@@H](O)C[C@@H](O)CC(=O)O [rosuvastatin]
Pin1:Jun
  effect on Pin1:Jun assay: little activity
CDKN1A(p21):Cdc2
  activity on CDKN1A(p21):Cdc2 assay: activity opposite from the other statins

## EGF: epidermal growth factor; hEGF from Roche
phospho-ERK; 100 ng/ml hEGF, 5 min
  ERK/MAP kinase phosphorylation: highly induced
phospho-Hsp27; 100 ng/ml hEGF, 5 min
  phospho-Hsp27: increased
phospho-CREB; 100 ng/ml hEGF, 5 min
  formation of phospho-CREB: induced

## TRAIL: protein cytokine, a TNF-alpha-family ligand
beta-Arr2:beta2AR; 480 minutes, FIG. 17 bars 3 & 4
  activity on adrenergic GPCR assays: no activity
ELK: MAPK1
  ELK: MAPK1 assay: strongly induced
MAPK1:MKNK1
  MAPK1:MKNK1 assay: strongly induced

## indirubin-3′-monoxime
Cofilin:Limk2
  Limk2:cofilin complexes: almost completely eliminated
Akt1:p27
  Akt:p27 complexes: negatively regulated
Akt1:Pdk1
  Akt:Pdk1 complexes: negatively regulated
